{
  "source": "patent US5312812A",
  "about": "“Pharmaceutical compositions comprising novel oligopeptides exhibiting selective inhibiting effect upon the proliferation of hemopoietic cells” (Richter Gedeon Vegyeszeti Gyar Rt., priority 1990, dated 1994)",
  "key": {"[1]": {"system": "mouse bone marrow cells", "type": "cell-based", "description": "For the long-term cultivation, cells isolated from mouse bone marrow were used in semi-solid agar culture. 1.5×10^5 femoral medulla cells obtained from 2-3 month old male C57B1 mice were suspended in 1 ml of \"McCoy 5A\" medium (product of Gibco), then the following were added: 20% by volume of horse blood-serum (product of Gibco), 16% by volume of L-cell CSF (colony stimulating factor prepared from the supernatant of […]; product of the Pharmacological Institute of the Medical University of Debrecen, Hungary) and agar-agar to 0.18% by weight. 100 μl of the semi-solid medium were cultivated in a Micropet capillary for 7 days in the above-described manner, then the colonies were counted under a Zeiss-Cytoplast stereomicroscope of 40-times magnification. The results are given as the percentage reduction of the numbers of colonies compared to the untreated control. The tests were carried out in the presence of 0.25 mmole/l mercapto ethanol (+ME) and without mercapto ethanol (-ME)."}, "[2]": {"system": "mouse bone marrow cells", "details": "10^-15 to 10^-4 mole/l, 7-day in vitro treatment; cited from earlier work"}, "[3]": {"system": "human bone marrow cells", "details": "10^-15 to 10^-4 mole/l, 7-day in vitro treatment; cited from earlier work"}, "[4]": {"system": "mouse", "details": "two mouse species; dose of 9.1 mg/animal or 1 mg/animal; cited from earlier work"}, "[5]": {"system": "cell proliferation", "details": "cited from earlier work"}},
  "note": "Like-named read-outs stand apart in the source and are kept apart here. Where a SMILES comes first, the peptide text is derived from it. Where no end group is shown, it is not given here. [ ]: non-standard residue; d: D form. The star is where a group is joined. pGlu = O=C1CC[C@@H](C(=O)O)N1; Acm = CC(=O)NC*",
  "data": [
    {"compound": "CC(=O)NCSC[C@H](NC(=O)[C@H](CC(=O)O)NC(=O)[C@H](CCC(=O)O)NC(=O)[C@@H]1CCC(=O)N1)C(=O)N[C@@H](CCCCN)C(=O)O", "note": "[SEQ I.D. No: 1, Xaa Glu Asp Cys Lys] ([pGlu]EDC(Acm)K-OH)", "values": [
      {"measurement": "percentage reduction of the numbers of colonies compared to the untreated control", "setting": "[1]; 1e-12 mole/l", "result": 70, "unit": "%"},
      {"measurement": "percentage reduction of the numbers of colonies compared to the untreated control", "setting": "[1]; 1e-8 mole/l", "result": 77, "unit": "%"},
      {"measurement": "percentage reduction of the numbers of colonies compared to the untreated control", "setting": "[1]; 1e-4 mole/l", "result": 81, "unit": "%"}
    ]},
    {"compound": "CC(=O)NCSC[C@H](NC(=O)[C@H](CC(=O)O)NC(=O)[C@@H](N)CCC(=O)O)C(=O)N[C@@H](CCCCN)C(=O)O", "note": "[SEQ I.D. No: 2, Glu Asp Cys Lys] (H-EDC(Acm)K-OH)", "values": [
      {"measurement": "percentage reduction of the numbers of colonies compared to the untreated control", "setting": "[1]", "result": 29, "unit": "%"},
      {"measurement": "percentage reduction of the numbers of colonies compared to the untreated control", "setting": "[1]; 1e-12 mole/l", "result": 36, "unit": "%"},
      {"measurement": "percentage reduction of the numbers of colonies compared to the untreated control", "setting": "[1]; 1e-10 mole/l", "result": 52, "unit": "%"},
      {"measurement": "percentage reduction of the numbers of colonies compared to the untreated control", "setting": "[1]; 1e-9 mole/l", "result": 26, "unit": "%"},
      {"measurement": "percentage reduction of the numbers of colonies compared to the untreated control", "setting": "[1]; 1e-8 mole/l", "result": 64, "unit": "%"},
      {"measurement": "percentage reduction of the numbers of colonies compared to the untreated control", "setting": "[1]; 1e-6 mole/l", "result": 66, "unit": "%"}
    ]},
    {"compound": "NCCCC[C@H](NC(=O)[C@H](CS)NC(=O)[C@H](CC(=O)O)NC(=O)[C@H](CCC(=O)O)NC(=O)[C@@H]1CCC(=O)N1)C(=O)O", "note": "[SEQ I.D. No: 5, Xaa Glu Asp Cys Lys] (HELM PEPTIDE1{[Glp].E.D.C.K}$$$$V2.0)", "values": [
      {"measurement": "toxicity to bone marrow cells", "setting": "[2]", "result": "not toxic"},
      {"measurement": "toxicity to bone marrow cells", "setting": "[3]", "result": "not toxic"},
      {"measurement": "toxicity to mice", "setting": "[4]", "result": "not toxic"}
    ]},
    {"compound": "Xaa Glu Asp Cys Lys Xaa Glu Asp Cys Lys ([pGlu]EDCK[pGlu]EDCK; not fully specified; printed as Xaa Glu Asp Cys Lys Xaa Glu Asp Cys Lys; cysteine pairing not given here) [SEQ I.D. No: 3, dimer molecule of the hemoregulating pentapeptide, Xaa is pyroglutamic acid]", "values": [
      {"measurement": "effect on cell proliferation", "setting": "[5]", "result": "cell proliferation stimulating effect"}
    ]},
    {"compound": "Xaa Glu Asp Met Lys ([pGlu]EDMK) [SEQ I.D. No: 4, Met analogue of the pentapeptide, Xaa is pyroglutamic acid]", "values": [
      {"measurement": "effect on cell proliferation", "setting": "[5]", "result": "ineffectiveness"}
    ]}
  ]
}
